Active and inactive are the calls of the source.
Key:
[1] = biological target: T1, E3 ubiquitin-protein ligase XIAP (Homo sapiens, UniProt P98170); assay: Counter Screen using XIAP-Bir3 for Chemical Antagonists of Bir1/2 domains of IAP-family anti-apoptotic proteins. [Related pubchem assays (depositor defined):AID1018, AID1449, AID1514, AID1638, AID1749, AID1750, AID488957, AID488963]
[2] = biological target: 14-3-3 protein gamma (Homo sapiens, UniProt P61981); assay: modulators of 14-3-3 gamma client binding – dose response (AID 711); format: functional
Chain of 14-3-3 protein gamma (P61981 whole entry): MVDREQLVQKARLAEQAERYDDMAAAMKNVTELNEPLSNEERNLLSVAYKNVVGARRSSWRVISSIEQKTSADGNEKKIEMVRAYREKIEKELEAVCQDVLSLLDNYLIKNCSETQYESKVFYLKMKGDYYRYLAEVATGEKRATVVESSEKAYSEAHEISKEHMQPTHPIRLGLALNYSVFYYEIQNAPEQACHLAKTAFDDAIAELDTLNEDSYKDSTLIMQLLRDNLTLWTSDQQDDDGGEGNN

[3] = biological target: T1, E3 ubiquitin-protein ligase XIAP; assay: XIAP antagonists, biochemical, IAP family, fluorescence polarization (AID 1018); format: functional
[4] = M. tuberculosis H37Rv growth inhibitors, H37Rv strain (AID 1626); format: functional
[5] = A High Throughput Confirmatory Assay used to Identify Novel Compounds that Inhibit Mycobacterium Tuberculosis in the absence of Glycerol.; format: functional
[6] = biological target: Dual specificity protein phosphatase 3 (Homo sapiens, UniProt P51452); assay: VHR phosphatase inhibition, dose response, selectivity assay for STEP inhibitor project, biochemical (AID 602374); format: functional; conditions: read-out: IC50_Mean
Chain of Dual specificity protein phosphatase 3 (P51452 whole entry): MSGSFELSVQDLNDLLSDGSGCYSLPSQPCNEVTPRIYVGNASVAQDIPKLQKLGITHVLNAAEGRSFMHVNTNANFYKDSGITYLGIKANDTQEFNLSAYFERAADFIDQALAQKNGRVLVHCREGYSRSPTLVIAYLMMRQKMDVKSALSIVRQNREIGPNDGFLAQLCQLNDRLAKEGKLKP

[7] = biological target: Tyrosine-protein phosphatase non-receptor type 22 (Homo sapiens, UniProt Q9Y2R2); assay: PTPN22 phosphatase inhibition, dose response, selectivity assay for STEP inhibitor project, biochemical (AID 624241); format: functional
Chain of Tyrosine-protein phosphatase non-receptor type 22 (Q9Y2R2 whole entry): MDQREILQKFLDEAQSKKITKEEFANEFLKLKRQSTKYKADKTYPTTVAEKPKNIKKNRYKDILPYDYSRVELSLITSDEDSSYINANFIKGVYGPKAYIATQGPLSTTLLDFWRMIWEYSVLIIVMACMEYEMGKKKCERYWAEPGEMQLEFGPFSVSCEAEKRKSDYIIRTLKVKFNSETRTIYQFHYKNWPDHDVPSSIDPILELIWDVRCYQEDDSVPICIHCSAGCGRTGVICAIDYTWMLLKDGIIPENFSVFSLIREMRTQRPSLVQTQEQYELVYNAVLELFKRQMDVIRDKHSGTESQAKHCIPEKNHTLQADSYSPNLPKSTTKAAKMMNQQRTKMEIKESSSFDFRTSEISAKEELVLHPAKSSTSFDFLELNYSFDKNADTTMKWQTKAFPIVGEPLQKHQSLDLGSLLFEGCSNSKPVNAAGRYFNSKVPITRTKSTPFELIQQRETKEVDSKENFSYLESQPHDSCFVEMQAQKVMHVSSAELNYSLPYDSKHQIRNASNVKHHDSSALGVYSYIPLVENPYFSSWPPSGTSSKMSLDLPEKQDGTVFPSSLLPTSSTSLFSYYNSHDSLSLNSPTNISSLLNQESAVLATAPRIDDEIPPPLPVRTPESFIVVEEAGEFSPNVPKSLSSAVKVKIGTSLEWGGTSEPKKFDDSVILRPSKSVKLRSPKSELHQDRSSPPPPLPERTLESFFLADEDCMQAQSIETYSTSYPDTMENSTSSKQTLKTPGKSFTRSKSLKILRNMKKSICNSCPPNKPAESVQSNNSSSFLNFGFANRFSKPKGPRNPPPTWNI

[8] = biological target: T2, Tyrosine-protein phosphatase non-receptor type 5 (Homo sapiens, UniProt P54829); assay: STEP phosphatase inhibitors, confirmation, biochemical, fluorescence intensity, uHTS hits (AID 602372); format: functional; conditions: read-out: IC50_Mean
T2 sequence (P54829 whole entry): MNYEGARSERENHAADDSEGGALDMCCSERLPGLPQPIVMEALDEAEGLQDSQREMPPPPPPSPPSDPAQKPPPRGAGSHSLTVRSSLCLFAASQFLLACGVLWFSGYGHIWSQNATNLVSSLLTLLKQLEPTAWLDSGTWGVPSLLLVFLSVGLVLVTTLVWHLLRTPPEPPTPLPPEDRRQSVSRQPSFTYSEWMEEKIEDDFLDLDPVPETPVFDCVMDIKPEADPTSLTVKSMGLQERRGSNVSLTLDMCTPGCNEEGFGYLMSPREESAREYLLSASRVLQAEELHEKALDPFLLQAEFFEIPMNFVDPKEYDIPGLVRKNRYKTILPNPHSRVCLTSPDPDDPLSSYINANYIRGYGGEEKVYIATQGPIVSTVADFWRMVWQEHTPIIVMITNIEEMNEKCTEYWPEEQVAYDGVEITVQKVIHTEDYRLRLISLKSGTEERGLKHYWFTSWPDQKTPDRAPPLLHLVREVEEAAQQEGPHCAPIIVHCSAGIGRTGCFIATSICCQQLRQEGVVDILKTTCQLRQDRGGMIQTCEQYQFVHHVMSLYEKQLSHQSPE

[9] = biological target: Ephrin type-A receptor 4 (Mus musculus, UniProt Q03137); assay: inhibitors of EphA4 binding to KYL peptide, primary screen, biochemical, colorimetric, mouse EphA4 (AID 689); format: functional
Chain of Ephrin type-A receptor 4 (Q03137 whole entry): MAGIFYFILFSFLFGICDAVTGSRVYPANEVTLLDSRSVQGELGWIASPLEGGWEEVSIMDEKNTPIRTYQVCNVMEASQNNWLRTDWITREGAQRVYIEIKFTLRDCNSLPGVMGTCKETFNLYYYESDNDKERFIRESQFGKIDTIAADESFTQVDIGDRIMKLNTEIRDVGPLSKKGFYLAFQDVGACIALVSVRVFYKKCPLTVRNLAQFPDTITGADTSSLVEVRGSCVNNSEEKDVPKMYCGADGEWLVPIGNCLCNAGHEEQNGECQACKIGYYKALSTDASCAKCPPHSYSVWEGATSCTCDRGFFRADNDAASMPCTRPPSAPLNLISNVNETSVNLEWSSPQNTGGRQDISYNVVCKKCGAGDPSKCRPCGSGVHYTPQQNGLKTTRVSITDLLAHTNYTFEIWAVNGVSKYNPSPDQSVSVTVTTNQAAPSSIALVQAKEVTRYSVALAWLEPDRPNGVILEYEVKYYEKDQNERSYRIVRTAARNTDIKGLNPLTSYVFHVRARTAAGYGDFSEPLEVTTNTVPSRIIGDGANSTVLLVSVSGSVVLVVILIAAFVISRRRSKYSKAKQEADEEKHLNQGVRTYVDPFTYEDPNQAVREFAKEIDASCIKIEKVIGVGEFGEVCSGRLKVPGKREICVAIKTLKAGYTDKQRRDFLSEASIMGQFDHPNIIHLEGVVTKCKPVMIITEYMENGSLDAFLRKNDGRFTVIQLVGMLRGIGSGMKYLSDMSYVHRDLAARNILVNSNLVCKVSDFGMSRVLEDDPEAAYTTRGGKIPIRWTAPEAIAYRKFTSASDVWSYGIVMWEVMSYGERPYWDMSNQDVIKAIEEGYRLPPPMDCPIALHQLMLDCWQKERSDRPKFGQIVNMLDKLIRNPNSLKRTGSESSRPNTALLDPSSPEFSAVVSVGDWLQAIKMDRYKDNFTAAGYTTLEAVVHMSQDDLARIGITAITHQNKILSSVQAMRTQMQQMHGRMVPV

[10] = biological target: T3, Tyrosine-protein phosphatase non-receptor type 11 (Homo sapiens, UniProt Q06124); assay: SHP2 phosphatase inhibition, dose response, selectivity assay for STEP inhibitor project, biochemical (AID 602367); format: functional; conditions: read-out: IC50_Mean
T3 sequence (Q06124 whole entry): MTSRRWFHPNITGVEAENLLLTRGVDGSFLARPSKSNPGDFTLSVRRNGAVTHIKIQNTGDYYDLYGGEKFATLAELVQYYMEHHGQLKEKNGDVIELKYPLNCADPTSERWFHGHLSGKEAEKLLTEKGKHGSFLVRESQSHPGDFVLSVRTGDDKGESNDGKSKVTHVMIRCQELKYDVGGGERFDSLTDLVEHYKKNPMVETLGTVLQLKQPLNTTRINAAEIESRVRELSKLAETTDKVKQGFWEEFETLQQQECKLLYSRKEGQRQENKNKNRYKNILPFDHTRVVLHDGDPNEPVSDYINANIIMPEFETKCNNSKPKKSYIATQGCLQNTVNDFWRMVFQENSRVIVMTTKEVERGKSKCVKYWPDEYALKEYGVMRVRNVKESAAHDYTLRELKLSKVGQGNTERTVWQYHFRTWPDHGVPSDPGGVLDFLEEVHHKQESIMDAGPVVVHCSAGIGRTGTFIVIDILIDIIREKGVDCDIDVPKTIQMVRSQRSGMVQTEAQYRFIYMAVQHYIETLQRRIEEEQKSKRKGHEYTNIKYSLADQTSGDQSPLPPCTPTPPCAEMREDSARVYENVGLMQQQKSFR

[11] = biological target: Sphingosine 1-phosphate receptor 2 (Homo sapiens, UniProt O95136); assay: Dose Response Cell Based Assay for Agonists of the S1P2 Receptor of Purchased Analogues. [Related pubchem assays: 729, 843, 854, 736 ]; format: functional
Chain of Sphingosine 1-phosphate receptor 2 (O95136 whole entry): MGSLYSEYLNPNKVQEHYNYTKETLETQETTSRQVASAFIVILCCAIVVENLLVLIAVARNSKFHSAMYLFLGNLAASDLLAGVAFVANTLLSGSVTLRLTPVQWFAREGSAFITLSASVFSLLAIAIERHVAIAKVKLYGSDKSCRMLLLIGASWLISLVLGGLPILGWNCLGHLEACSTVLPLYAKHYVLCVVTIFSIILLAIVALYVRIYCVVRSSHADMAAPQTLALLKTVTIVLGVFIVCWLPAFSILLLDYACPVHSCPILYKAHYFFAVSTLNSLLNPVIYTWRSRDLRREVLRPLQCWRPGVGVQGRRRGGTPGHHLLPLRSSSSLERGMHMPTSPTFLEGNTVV

[12] = biological target: Galanin receptor type 2 (Homo sapiens, UniProt O43603); assay: Dose Response cell-based high-throughput screening assay to identify antagonists of galanin receptor 2 (GALR2). [Related pubchem assays: 828, 866 ]; format: functional
Chain of Galanin receptor type 2 (O43603 whole entry): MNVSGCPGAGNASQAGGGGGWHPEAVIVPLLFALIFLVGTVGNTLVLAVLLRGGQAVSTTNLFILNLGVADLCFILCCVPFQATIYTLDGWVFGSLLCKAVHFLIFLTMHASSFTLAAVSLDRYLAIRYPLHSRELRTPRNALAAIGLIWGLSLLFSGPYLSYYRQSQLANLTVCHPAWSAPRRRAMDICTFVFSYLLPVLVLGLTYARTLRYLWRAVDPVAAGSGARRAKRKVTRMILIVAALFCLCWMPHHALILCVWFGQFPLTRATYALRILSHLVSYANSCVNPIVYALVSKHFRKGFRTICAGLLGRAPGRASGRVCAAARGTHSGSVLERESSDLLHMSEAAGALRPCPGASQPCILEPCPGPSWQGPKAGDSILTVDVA

[13] = biological target: Galanin receptor type 3 (Homo sapiens, UniProt O60755); assay: Fluorescence-based cell-based primary high throughput dose response assay to identify antagonists of the Galanin Receptor 3 (GalR3).; format: functional
Chain of Galanin receptor type 3 (O60755 whole entry): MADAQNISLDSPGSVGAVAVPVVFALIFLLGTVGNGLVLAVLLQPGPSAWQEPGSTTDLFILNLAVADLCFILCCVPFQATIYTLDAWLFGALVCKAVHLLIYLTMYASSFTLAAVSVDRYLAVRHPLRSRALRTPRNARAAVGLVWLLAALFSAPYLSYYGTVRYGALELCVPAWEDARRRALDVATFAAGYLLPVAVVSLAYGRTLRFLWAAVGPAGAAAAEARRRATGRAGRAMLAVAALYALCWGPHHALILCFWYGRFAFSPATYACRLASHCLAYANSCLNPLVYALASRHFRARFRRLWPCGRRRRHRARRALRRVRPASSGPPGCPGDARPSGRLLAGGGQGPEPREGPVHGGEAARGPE

[14] = cells; format: functional, cell-based; conditions: HEK-CNG
[15] = biological target: COUP transcription factor 2 (Homo sapiens, UniProt P24468); assay: Luminescence-based cell-based high throughput dose response assay to identify inhibitors of COUP-TFII (NR2F2).; format: functional;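 also: HEK293 cells transiently cotransfected with COUP-TFII expression vector and reporter; luciferase reporter luminescence driven by COUP-TFII from the pX2-168 reporter plasmid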
Chain of COUP transcription factor 2 (P24468 whole entry): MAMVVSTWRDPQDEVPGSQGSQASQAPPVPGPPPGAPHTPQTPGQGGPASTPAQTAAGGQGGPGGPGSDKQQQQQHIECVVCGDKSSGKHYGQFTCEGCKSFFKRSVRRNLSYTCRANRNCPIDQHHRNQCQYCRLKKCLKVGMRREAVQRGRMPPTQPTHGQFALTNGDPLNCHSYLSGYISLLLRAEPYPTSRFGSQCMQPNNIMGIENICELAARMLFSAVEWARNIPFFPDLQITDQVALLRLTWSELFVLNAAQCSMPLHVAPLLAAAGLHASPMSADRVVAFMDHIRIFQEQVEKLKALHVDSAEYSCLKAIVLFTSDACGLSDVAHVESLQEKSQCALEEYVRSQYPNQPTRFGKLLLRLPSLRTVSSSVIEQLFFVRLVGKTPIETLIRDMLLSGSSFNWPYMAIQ

[16] = biological target: T4, Heat shock factor protein 1 (Mus musculus, UniProt P38532); assay: inhibition of MG132-induced HSE-luciferase signal, confirmation, cell-based, NIH3T3, luminescence, dose retest (AID 2382); format: functional;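 also: NIH3T3 fibroblasts with HSF1-driven luciferase reporter stressed by proteasome inhibitor MG132; luminescence from HSF1-driven luciferase expression after 8 hours of MG132 stress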
T4 sequence (P38532 whole entry): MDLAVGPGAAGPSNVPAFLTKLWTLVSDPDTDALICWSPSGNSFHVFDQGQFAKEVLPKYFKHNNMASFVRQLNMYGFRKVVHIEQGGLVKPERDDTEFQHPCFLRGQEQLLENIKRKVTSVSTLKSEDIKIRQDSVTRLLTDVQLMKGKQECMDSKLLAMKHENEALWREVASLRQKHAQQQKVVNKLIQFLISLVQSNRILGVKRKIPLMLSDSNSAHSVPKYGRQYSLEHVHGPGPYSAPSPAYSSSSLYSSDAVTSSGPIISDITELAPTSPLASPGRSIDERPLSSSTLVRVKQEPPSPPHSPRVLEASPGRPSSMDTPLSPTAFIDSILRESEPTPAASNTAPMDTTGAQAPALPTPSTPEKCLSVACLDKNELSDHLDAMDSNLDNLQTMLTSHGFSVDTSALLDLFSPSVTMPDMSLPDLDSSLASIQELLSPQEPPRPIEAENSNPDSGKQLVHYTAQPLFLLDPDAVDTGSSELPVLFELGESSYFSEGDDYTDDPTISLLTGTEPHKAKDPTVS

[17] = biological target: Aspartyl aminopeptidase (Plasmodium falciparum 3D7, UniProt Q8I2J3); assay: Counterscreen for inhibitors of M1 and M17 aminopeptidases: QFRET-based biochemical high throughput dose response assay for inhibitors of the Plasmodium falciparum M18 Aspartyl Aminopeptidase (PFM18AAP). [Related PubChem assays: 1619 (Screening assay (M17LAP inhibitors).), 1445 (Screening assay (M1AAP inhibitors).)]
[18] = test system: HEK293; assay: NOD1 signaling inhibitors, primary screen, cell-based, luminescence, uHTS (AID 1578); format: functional; conditions: Homo sapiens
[19] = test system: HEK293; assay: cells; format: functional, cell-based; conditions: Homo sapiens
[20] = test system: HEK293; assay: cells; format: functional, cell-based; conditions: Homo sapiens; remark: listed apart in the source
[21] = test system: HEK293; assay: NOD2 signaling inhibitors in MDP-stimulated cells, cell-based, uHTS, luminescence (AID 2001); format: functional; conditions: Homo sapiens
[22] = biological target: Procathepsin L (Homo sapiens, UniProt P07711); assay: cathepsin L inhibitors, dose response, counter-screen for M1/M17 aminopeptidase inhibitor project, biochemical, QFRET, 1536-well (AID 2214)
Chain of Procathepsin L (P07711 whole entry): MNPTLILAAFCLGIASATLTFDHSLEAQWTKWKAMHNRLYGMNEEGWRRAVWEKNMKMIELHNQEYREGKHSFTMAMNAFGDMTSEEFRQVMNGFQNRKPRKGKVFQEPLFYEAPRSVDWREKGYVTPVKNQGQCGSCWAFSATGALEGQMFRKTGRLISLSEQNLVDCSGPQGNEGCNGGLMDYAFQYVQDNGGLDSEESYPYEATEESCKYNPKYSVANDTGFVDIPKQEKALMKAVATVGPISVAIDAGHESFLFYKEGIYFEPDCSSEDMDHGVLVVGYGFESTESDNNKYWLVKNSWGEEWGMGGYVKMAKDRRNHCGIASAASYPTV

[23] = biological target: T5, Aminopeptidase N (Plasmodium falciparum FcB1/Columbia, UniProt O96935); assay: P. falciparum M1AAP inhibitors, biochemical, fluorogenic H-Leu-NHMec substrate, 1536-well (AID 1445); design: species or system Plasmodium falciparum 3D7, 3D7
T5 sequence (O96935 whole entry): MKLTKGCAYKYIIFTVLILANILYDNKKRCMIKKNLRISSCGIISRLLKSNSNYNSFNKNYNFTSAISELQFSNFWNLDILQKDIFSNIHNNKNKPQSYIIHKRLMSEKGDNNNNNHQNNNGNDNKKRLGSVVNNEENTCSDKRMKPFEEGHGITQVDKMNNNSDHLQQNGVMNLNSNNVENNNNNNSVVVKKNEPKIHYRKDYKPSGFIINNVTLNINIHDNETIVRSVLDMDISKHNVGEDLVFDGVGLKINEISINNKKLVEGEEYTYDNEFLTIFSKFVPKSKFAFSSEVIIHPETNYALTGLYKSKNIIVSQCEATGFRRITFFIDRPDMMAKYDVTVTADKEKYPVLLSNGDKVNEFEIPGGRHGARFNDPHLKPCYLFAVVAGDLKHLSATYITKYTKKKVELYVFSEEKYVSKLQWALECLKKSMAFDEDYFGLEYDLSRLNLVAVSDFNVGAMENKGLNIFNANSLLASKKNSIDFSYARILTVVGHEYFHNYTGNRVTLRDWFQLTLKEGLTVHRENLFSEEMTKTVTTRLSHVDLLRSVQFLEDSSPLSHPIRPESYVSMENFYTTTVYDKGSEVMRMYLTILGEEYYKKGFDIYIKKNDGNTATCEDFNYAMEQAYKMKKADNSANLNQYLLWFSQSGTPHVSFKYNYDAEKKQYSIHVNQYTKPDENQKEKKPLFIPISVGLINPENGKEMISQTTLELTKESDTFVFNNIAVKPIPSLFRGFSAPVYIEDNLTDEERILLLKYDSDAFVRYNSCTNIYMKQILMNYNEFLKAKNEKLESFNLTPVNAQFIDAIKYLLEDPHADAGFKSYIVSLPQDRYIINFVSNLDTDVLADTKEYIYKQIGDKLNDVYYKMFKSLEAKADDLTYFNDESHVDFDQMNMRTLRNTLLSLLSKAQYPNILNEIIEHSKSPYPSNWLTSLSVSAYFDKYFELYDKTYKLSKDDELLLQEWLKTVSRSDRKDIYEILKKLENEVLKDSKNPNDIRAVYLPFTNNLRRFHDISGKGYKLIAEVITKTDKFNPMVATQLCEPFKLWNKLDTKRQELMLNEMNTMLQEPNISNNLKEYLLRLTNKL

[24] = biological target: T6, Calpain-2 catalytic subunit (Sus scrofa, UniProt P43367); assay: pig calpain II inhibitor potency, dose response, biochemical, fluorogenic peptide substrate (AID 1420); format: functional
T6 sequence (P43367 whole entry): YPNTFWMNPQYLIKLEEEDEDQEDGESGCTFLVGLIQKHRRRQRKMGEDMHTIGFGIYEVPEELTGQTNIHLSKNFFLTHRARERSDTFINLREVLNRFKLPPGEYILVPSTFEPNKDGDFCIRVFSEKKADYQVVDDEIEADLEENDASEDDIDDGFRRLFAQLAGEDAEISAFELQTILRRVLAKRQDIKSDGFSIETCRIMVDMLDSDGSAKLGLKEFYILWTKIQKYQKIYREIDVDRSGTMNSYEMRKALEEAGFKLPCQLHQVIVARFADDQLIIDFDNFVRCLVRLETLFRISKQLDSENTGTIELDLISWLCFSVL

[25] = biological target: Glyceraldehyde-3-phosphate dehydrogenase (Homo sapiens, UniProt P04406)
Chain of Glyceraldehyde-3-phosphate dehydrogenase (P04406 whole entry): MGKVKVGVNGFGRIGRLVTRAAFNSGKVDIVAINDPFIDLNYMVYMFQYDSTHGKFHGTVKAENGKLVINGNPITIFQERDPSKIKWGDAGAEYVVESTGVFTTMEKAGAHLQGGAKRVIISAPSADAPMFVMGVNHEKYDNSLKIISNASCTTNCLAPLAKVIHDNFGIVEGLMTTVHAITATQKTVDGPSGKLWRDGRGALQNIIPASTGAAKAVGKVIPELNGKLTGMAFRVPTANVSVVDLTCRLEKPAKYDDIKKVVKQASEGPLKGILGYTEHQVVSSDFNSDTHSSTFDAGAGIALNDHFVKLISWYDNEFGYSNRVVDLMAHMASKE

[26] = biological target: T7, Bcl-2-related protein A1 (Mus musculus, UniProt Q07440); assay: Bfl-1 inhibitors blocking BH3 peptide binding, confirmation, biochemical, TR-FRET, mouse Bfl-1 (AID 621);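 also: TR-FRET binding of GST-Bfl-1 to FITC-labelled Bid peptide via terbium antibody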
T7 sequence (Q07440 whole entry): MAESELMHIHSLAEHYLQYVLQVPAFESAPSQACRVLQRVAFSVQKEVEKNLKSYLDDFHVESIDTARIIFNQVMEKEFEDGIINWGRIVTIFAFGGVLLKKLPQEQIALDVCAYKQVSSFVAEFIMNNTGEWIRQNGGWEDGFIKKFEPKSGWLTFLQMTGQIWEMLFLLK

[27] = biological target: T7, Bcl-2-related protein A1; assay: Bfl-1 binding inhibitors, SAR follow-up, biochemical, fluorescence polarization (AID 1070)

T1 sequence (P98170 whole entry): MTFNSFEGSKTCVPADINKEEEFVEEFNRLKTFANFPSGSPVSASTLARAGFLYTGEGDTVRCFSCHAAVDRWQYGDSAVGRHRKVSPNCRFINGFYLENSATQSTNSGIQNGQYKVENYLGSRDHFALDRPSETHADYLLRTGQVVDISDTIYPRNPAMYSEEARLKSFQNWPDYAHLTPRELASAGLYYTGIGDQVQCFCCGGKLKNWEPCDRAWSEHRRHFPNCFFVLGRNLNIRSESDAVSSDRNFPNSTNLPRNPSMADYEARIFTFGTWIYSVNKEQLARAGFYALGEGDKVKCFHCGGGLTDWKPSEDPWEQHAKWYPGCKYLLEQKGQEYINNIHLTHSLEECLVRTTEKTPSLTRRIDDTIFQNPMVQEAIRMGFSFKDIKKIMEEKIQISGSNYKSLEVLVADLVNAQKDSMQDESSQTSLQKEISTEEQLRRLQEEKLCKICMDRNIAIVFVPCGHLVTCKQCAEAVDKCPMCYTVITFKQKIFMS

CCn1c(CSc2nnc(-c3cccnc3)n2-c2ccccc2C)nc2cc(C(=O)O)ccc21
IC50 [1]: > 1.56 µM (inactive) | IC50 [2]: < 0.781 µM (active) | IC50 [3]: > 0.781 µM (not active)

Fc1ccc(-c2nnc(CSc3nnc(-c4cccs4)o3)o2)cc1
IC50 [4]: > 100 µM (active)

CC(Oc1cc2oc(=O)c3c(c2cc1Cl)CCCC3)C(=O)NCc1ccccn1 (configuration not stated)
IC50 [5]: > 100 µM (active)

Cc1ccc(-n2c(C)nc3oc4ccccc4c(=O)c3c2=O)cc1
IC50 [6]: 0.779 µM (active) | IC50 [7]: 14 µM (active) | IC50 [8]: 14.4 µM (active) | IC50 [9]: > 100 µM (not active) | IC50 [10]: 1.13 µM (active)

Cc1nn(CC(=O)c2cc(C)n(Cc3ccccc3)c2C)c(C)c1[N+](=O)[O-]
EC50 [11]: > 30 µM (not active)

Cc1sc2ncnc(NCCc3ccc(S(N)(=O)=O)cc3)c2c1C
IC50 [12]: > 42 µM (not active) | IC50 [13]: 2.95 µM (active) | EC50 [14]: > 29.9 µM (inactive) | IC50 [15]: 4.23 µM (active) | EC50 [16]: > 195 µM (not active)

O=C(O)C(Cc1ccccc1)N1C(=O)/C(=C/c2cccc3ccccc23)SC1=S (configuration not stated)
IC50 [17]: > 73.5 µM (not active) | EC50 [18]: 16.5 µM (active) | IC50 [19]: > 20 µM (inactive) | IC50 [20]: > 20 µM (inactive) | IC50 [21]: 18.5 µM (inactive) | IC50 [22]: 28.4 µM (not active) | IC50 [23]: 14.9 µM (active) | IC50 [24]: > 50 µM (not active)

O=C1C(Cl)=C(N2CCN(CCOCCO)CC2)C(=O)N1c1ccnc(Cl)c1
IC50 [25]: > 100 µM (not active) | IC50 [26]: 20.5 µM (active) | IC50 [27]: 33.2 µM (active)

Source: ChEMBL document CHEMBL1201862, “PubChem BioAssay data set” (2004)
